According to patent publication US20120309763A1, “ANTIFUNGAL COMPOSITION INTENDED TO BE APPLIED TO A PERFORATED NAIL” (priority 2009, published 2012):

Assays:
[1] = Diffusion of terbinafine HCl through the layers of the nail, Franz cells (Example 10): dorsal layer; format: in vitro ADME; conditions: 5 days
Source text: This temperature is checked before each withdrawal.

[2] = Diffusion of terbinafine HCl through the layers of the nail, Franz cells (Example 10): intermediate layer
Protocol: For each formulation, 2 nails (1 with the dorsal layer and 1 without the dorsal layer) are used per donor. The treatment time is 5 days with a new application of each formula every day. The amount of formula deposited daily on the surface of the nail is 10 μl/cm2.
For each donor, the thickness of the nails is measured. Then, for each donor, the nails are prepared in the following manner:
4 nails without dorsal layer: for the nails from this group, the dorsal face is removed using a miniature sander in order to reach the intermediate layer by removing 40% of the initial thickness of the nail,
The Franz type diffusion cells used are placed in a thermostatically-controlled bath in order to obtain a temperature of 32±1° C. at the surface of the nail. The nails are placed in the diffusion cell with the ventral side towards the receiving compartment, phosphate buffer (pH 7.4±0.1) containing 0.1% of Volpo (Oleth-20). During the experiment, the diffusion cells are placed in a thermostatically-controlled bath in order to obtain a temperature of 32±1° C. This temperature is checked before each withdrawal. […]
The samples, receiving liquids and nail extracts are then analysed by MS/MS. […]
The procedures of the study and also the amounts of terbinafine HCl in the various layers of the nail, dorsal and intermediate, were carried out and analysed according to the same protocol as before.

## CCCCCCCCCCCC[N+](C)(C)CC(=O)[O-] [amphoteric agent, Lauryl Dimethylaminoacetic Acid Betaine]
[1]; 10% solution with vs without amphoteric agent
  increase of the penetration of terbinafine through the dorsal layer by the presence of the amphoteric agent (×): 3
[1]; Lamisil Spray 1% with vs without amphoteric agent, dorsal layer
  factor of reduction of the amount of terbinafine HCl in the nail by the presence of the amphoteric agent: 3
[2]; Lamisil Spray 1% with vs without amphoteric agent, intermediate layer, 5 days
  factor of reduction of the amount of terbinafine HCl in the nail by the presence of the amphoteric agent: 3

## CN(C/C=C/C#CC(C)(C)C)Cc1cccc2ccccc12.Cl [terbinafine HCl, terbinafine hydrochloride, reference compound]
[2]; composition with amphoteric agent
  factor of better diffusion in the intermediate layer relative to the dorsal layer: 3
